Source: the kinase profiling compilation of Christmann-Franck et al. (2016)
Where “and” joins values, the source holds several entries; their conditions need not be identical. Equal entries are not always repeated.

What was measured:
Assay in all cases: KINOMEscan competition binding
Settings in all cases: compound 10.0 µM
[1] = target: CDKL2 (human) (UniProt Q92772)
[2] = target: MARK3 (human) (UniProt P27448)
[3] = target: ACVR1 (human) (UniProt Q04771)
[4] = target: MAP4K4 (human) (UniProt O95819)
[5] = target: PRKACB (human) (UniProt P22694)
[6] = target: PI4KB (human) (UniProt Q9UBF8)
[7] = target: PAK3 (human) (UniProt O75914)
[8] = target: STK33 (human) (UniProt Q9BYT3)
[9] = target: PAK2 (human) (UniProt Q13177)
[10] = target: MAP3K12 (human) (UniProt Q12852)
[11] = target: ZAP70 (human) (UniProt P43403)
[12] = target: MAP4K2 (human) (UniProt Q12851)
[13] = target: CAMKK2 (human) (UniProt Q96RR4)
[14] = target: MAPK9 (human) (UniProt P45984)
[15] = target: STK24 (human) (UniProt Q9Y6E0)
[16] = target: NEK4 (human) (UniProt P51957)
[17] = target: CHEK2 (human) (UniProt O96017)
[18] = target: JAK1 JH2 pseudokinase (human) (UniProt P23458)
[19] = target: NEK3 (human) (UniProt P51956)
[20] = target: EPHB2 (human) (UniProt P29323)
[21] = target: STK4 (human) (UniProt Q13043)
[22] = target: IKBKE (human) (UniProt Q14164)
[23] = target: LTK (human) (UniProt P29376)
[24] = target: CLK4 (human) (UniProt Q9HAZ1)
[25] = target: ERBB4 (human) (UniProt Q15303)
[26] = target: IRAK3 (human) (UniProt Q9Y616)
[27] = target: RPS6KA4 KD2 (human) (UniProt O75676)
[28] = target: PAK6 (human) (UniProt Q9NQU5)
[29] = target: HCK (human) (UniProt P08631)
[30] = target: CSNK1D (human) (UniProt P48730)
[31] = target: CAMK1G (human) (UniProt Q96NX5)
[32] = target: PRKD1 (human) (UniProt Q15139)
[33] = target: MAP3K10 (human) (UniProt Q02779)
[34] = target: ACVR2B (human) (UniProt Q13705)
[35] = target: CDKL3 (human) (UniProt Q8IVW4)
[36] = target: RIPK1 (human) (UniProt Q13546)
[37] = target: TYK2 JH1 catalytic (human) (UniProt P29597)
[38] = target: RPS6KA1 KD1 (human) (UniProt Q15418)
[39] = target: MLTK (human) (UniProt Q9NYL2)
[40] = target: MAPK13 (human) (UniProt O15264)
Sequence of MAPK13 (human) (O15264 whole entry, looked up): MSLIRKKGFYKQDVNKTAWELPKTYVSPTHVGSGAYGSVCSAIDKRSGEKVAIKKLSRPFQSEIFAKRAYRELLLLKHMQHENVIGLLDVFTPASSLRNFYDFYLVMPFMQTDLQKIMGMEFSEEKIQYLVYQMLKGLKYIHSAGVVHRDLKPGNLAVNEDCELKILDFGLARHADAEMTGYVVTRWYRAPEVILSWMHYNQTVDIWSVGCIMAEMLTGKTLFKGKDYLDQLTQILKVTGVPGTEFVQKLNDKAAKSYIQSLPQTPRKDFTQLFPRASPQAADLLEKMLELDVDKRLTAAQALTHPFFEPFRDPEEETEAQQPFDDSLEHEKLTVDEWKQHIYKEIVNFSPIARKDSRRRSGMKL

Sequence of MAP4K4 (human) (O95819 whole entry, looked up): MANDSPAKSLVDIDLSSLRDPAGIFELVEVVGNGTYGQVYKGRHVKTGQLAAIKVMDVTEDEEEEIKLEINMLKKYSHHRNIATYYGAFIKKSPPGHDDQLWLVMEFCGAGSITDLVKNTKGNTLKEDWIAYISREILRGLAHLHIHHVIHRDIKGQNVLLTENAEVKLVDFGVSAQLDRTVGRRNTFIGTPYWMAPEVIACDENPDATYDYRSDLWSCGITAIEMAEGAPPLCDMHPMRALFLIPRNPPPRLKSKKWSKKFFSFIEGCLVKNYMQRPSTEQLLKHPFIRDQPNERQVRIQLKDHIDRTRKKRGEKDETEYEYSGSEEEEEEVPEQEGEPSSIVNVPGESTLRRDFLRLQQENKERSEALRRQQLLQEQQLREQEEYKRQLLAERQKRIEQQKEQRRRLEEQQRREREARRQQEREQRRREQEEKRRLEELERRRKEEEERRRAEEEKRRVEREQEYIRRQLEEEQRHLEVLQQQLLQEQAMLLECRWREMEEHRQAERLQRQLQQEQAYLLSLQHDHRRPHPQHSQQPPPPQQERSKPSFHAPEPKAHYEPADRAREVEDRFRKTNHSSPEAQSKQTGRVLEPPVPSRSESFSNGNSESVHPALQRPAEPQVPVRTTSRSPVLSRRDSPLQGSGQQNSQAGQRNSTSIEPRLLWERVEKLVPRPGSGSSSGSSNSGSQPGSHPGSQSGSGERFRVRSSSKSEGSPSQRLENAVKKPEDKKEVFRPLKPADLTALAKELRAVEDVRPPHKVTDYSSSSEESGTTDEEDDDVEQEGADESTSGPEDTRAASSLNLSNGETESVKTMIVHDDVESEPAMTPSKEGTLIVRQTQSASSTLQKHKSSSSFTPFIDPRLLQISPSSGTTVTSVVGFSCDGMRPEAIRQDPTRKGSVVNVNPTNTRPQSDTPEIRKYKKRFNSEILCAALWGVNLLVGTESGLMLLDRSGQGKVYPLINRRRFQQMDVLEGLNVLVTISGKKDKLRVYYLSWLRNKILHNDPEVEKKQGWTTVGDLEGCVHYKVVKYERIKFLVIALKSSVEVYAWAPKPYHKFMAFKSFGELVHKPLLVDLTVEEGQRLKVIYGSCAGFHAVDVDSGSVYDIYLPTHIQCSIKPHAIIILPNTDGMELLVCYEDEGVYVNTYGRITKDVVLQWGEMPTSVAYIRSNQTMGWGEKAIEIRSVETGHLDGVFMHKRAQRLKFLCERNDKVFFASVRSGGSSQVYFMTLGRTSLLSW
Sequence of NEK4 (human) (P51957 whole entry, looked up): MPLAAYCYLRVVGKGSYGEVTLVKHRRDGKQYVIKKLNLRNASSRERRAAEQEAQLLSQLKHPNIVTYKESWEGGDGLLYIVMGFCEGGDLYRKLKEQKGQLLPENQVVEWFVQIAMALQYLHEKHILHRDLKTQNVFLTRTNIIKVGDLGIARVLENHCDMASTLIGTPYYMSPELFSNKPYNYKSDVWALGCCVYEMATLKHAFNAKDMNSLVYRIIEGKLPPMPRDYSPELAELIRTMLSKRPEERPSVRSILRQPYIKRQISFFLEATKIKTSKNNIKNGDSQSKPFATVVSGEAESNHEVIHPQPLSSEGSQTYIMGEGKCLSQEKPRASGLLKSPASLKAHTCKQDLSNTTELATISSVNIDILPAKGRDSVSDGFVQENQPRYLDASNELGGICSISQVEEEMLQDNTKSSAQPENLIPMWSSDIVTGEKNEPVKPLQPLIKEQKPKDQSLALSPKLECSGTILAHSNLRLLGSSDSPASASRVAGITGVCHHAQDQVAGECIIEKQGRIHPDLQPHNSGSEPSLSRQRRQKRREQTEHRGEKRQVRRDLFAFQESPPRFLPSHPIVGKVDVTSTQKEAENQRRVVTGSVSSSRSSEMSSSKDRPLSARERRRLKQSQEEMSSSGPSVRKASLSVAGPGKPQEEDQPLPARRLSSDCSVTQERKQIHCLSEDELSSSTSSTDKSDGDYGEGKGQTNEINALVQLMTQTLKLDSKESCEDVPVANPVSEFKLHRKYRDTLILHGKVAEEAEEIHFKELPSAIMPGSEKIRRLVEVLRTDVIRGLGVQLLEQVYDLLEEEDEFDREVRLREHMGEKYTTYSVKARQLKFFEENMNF
Sequence of CSNK1D (human) (P48730 whole entry, looked up): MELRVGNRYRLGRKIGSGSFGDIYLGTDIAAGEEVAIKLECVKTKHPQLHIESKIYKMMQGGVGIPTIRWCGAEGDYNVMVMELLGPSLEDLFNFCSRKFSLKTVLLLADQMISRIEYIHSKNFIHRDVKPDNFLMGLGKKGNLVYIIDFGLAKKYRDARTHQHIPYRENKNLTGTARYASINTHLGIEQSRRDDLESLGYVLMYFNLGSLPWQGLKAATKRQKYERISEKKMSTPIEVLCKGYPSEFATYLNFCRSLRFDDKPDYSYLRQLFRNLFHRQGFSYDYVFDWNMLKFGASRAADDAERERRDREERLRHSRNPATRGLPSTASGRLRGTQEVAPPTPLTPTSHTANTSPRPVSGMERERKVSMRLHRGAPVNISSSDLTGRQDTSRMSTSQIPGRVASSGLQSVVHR
Sequence of EPHB2 (human) (P29323 whole entry, looked up): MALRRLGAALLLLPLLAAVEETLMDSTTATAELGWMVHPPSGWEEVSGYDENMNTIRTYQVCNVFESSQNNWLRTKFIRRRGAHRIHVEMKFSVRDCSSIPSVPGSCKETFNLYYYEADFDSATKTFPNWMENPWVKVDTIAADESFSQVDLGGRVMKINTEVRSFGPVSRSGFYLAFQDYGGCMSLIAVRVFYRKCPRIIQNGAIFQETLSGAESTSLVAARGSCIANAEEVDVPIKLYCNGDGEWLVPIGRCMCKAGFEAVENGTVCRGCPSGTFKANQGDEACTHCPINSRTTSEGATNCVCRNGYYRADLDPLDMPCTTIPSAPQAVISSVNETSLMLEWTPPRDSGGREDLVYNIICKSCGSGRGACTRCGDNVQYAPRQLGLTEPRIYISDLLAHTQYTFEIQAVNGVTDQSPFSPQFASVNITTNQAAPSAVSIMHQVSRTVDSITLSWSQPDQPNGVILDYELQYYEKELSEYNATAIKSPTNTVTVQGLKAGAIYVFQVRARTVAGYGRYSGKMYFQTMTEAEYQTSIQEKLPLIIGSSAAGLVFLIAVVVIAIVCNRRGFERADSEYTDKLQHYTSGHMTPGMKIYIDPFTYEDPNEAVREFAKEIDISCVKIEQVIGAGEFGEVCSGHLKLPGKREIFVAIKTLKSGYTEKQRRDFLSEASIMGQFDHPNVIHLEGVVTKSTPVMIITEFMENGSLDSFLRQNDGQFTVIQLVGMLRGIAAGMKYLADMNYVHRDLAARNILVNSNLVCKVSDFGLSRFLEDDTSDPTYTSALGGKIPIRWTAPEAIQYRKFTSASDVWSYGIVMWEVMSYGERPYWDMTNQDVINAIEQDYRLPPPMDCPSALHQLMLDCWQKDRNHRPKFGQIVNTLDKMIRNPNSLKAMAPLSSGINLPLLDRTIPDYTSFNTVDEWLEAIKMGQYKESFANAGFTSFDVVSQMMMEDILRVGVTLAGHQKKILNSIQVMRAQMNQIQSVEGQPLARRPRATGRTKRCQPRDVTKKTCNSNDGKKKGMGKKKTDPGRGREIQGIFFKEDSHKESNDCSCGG
Sequence of CAMKK2 (human) (Q96RR4 whole entry, looked up): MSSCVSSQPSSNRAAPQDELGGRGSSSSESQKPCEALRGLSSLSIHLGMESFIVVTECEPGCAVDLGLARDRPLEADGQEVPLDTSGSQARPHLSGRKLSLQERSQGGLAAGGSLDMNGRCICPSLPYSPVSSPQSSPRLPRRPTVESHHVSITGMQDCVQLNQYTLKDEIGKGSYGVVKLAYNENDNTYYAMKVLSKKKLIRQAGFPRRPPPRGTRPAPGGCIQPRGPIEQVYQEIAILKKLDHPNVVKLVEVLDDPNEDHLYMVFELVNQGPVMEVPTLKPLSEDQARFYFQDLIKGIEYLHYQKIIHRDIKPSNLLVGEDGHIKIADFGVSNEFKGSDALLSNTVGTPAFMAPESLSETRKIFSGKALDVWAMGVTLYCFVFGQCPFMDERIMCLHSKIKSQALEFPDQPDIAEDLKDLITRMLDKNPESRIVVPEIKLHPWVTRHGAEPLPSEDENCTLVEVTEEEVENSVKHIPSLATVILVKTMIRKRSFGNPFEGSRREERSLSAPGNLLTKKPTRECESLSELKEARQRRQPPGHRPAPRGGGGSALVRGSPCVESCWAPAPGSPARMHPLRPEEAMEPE
Sequence of STK4 (human) (Q13043 whole entry, looked up): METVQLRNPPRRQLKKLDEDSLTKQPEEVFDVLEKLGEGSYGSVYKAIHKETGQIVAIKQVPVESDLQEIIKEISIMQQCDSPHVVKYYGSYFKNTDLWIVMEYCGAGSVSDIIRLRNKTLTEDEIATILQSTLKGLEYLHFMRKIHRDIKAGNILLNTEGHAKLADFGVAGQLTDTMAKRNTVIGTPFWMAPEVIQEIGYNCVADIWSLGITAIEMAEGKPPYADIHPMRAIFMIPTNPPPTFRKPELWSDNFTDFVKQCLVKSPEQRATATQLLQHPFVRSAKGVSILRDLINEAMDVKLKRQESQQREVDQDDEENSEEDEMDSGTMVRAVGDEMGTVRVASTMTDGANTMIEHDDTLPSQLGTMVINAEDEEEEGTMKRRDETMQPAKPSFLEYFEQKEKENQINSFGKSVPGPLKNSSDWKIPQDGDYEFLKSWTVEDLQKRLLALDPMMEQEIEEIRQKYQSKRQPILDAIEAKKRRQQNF

Structure (SMILES) | kinase still bound, per cent of control [1] | kinase still bound, per cent of control [2] | kinase still bound, per cent of control [3] | kinase still bound, per cent of control [4] | kinase still bound, per cent of control [5] | kinase still bound, per cent of control [6] | kinase still bound, per cent of control [7] | kinase still bound, per cent of control [8] | kinase still bound, per cent of control [9] | kinase still bound, per cent of control [10] | kinase still bound, per cent of control [11] | kinase still bound, per cent of control [12] | kinase still bound, per cent of control [13] | kinase still bound, per cent of control [14] | kinase still bound, per cent of control [15] | kinase still bound, per cent of control [16] | kinase still bound, per cent of control [17] | kinase still bound, per cent of control [18] | kinase still bound, per cent of control [19] | kinase still bound, per cent of control [20] | also measured
O=C1NC(=O)/C(=C/c2ccc3nccc(-c4ccncc4)c3c2)S1 | 64% | 100% | 36% | 41% and 47% | 31% | 0.4% | 20% | 0.55% | 21% | 96% | 93% | 5.8% | 2% | 39% | 87% | 96% | 57% | 57% | 77% | 86% | kinase still bound, per cent of control [21]: 81%; kinase still bound, per cent of control [22]: 45%; kinase still bound, per cent of control [23]: 22%; kinase still bound, per cent of control [24]: 0.2%; kinase still bound, per cent of control [25]: 65%; kinase still bound, per cent of control [26]: 14%; kinase still bound, per cent of control [27]: 63%; kinase still bound, per cent of control [28]: 83%; kinase still bound, per cent of control [29]: 75%; kinase still bound, per cent of control [30]: 3.6%; kinase still bound, per cent of control [31]: 32%; kinase still bound, per cent of control [32]: 89%; kinase still bound, per cent of control [33]: 60%; kinase still bound, per cent of control [34]: 20%; kinase still bound, per cent of control [35]: 99%; kinase still bound, per cent of control [36]: 100%; kinase still bound, per cent of control [37]: 38%; kinase still bound, per cent of control [38]: 51%; kinase still bound, per cent of control [39]: 16%; kinase still bound, per cent of control [40]: 100%
CN(C)C/C=C/C(=O)Nc1ccc(C(=O)Nc2cccc(Nc3nccc(-c4cccnc4)n3)c2)cc1 | 33% | 100% | 53% | 18% | 100% | 51% | 100% | 100% | 76% | 74% | 85% | 9% | 16% | 2.5% | 100% | 100% | 86% | 0.6% | 17% | 100% | kinase still bound, per cent of control [21]: 100%; kinase still bound, per cent of control [22]: 76%; kinase still bound, per cent of control [23]: 100%; kinase still bound, per cent of control [24]: 2.2%; kinase still bound, per cent of control [25]: 100%; kinase still bound, per cent of control [26]: 6.8%; kinase still bound, per cent of control [27]: 80%; kinase still bound, per cent of control [28]: 46%; kinase still bound, per cent of control [29]: 100%; kinase still bound, per cent of control [30]: 20%; kinase still bound, per cent of control [31]: 64%; kinase still bound, per cent of control [32]: 100%; kinase still bound, per cent of control [33]: 94%; kinase still bound, per cent of control [34]: 98%; kinase still bound, per cent of control [35]: 20%; kinase still bound, per cent of control [36]: 34%; kinase still bound, per cent of control [37]: 15%; kinase still bound, per cent of control [38]: 91%; kinase still bound, per cent of control [39]: 62%; kinase still bound, per cent of control [40]: 100%
